# In ChEMBL document CHEMBL5042533, “Structural Optimization and Structure-Activity Relationship Studies of 6,6-Dimethyl-4-(phenylamino)-6H-pyrimido[5,4-b][1,4]oxazin-7(8H)-one Derivatives as A New Class of Potent Inhibitors of Pan-Trk and Their Drug-Resistant Mutants” (J Med Chem, 2022):
# Active and inactive are the calls of the source. The calls are words filed in the database; no cut-off is given here.
# Legend:
# in vitro = conditions: mouse, BaF3 cells
# Description: Cytotoxicity against mouse BaF3 assessed as inhibition of cell growth incubated for 3 days by CCK-8 assay
# BaF3 [1] = assay: cells; conditions: Mus musculus, BaF3, 72 h
# BaF3 [2] = assay: cells; conditions: Mus musculus, BaF3, 72 h; remark: listed apart in the source
# Description: Cytotoxicity against mouse BaF3 cells expressing CD74 fused TrkA assessed as inhibition of cell growth incubated for 3 days by CCK-8 assay
# BaF3 [3] = assay: cells; conditions: Mus musculus
# Description: Cytotoxicity against mouse BaF3 cells harboring TEL fused TrkC G613R mutant assessed as inhibition of cell growth by MTT assay
# cells = conditions: Homo sapiens, KM12-Luc, 72 h
# Description: Cytotoxicity against human KM12-Luc cells expressing TPM3 fused TrkA assessed as inhibition of cell growth incubated for 3 days by CCK-8 assay
# BaF3 [4] = assay: Cytotoxicity against mouse BaF3 cells expressing LMNA fused TrkA F589L mutant assessed as inhibition of cell growth incubated for 3 days by CCK-8 assay; type: functional, cell-based; conditions: BaF3, 72 h
# BaF3 [5] = assay: cells; conditions: Mus musculus, BaF3, 72 h; remark: listed apart in the source
# Description: Cytotoxicity against mouse BaF3 cells expressing LMNA fused TrkA G667S mutant assessed as inhibition of cell growth incubated for 3 days by CCK-8 assay
# BaF3 [6] = assay: cells; conditions: Mus musculus, BaF3, 72 h; remark: listed apart in the source
# Description: Cytotoxicity against mouse BaF3 cells expressing TEL fused TrkC G623R assessed as inhibition of cell growth incubated for 3 days by CCK-8 assay
# BaF3 [7] = assay: cells; conditions: Mus musculus, BaF3, 72 h; remark: listed apart in the source
# Description: Cytotoxicity against mouse BaF3 cells expressing TEL fused TrkC G696C assessed as inhibition of cell growth incubated for 3 days by CCK-8 assay
# BaF3 [8] = assay: cells; conditions: Mus musculus, BaF3, 72 h; remark: listed apart in the source
# Description: Cytotoxicity against mouse BaF3 cells expressing TEL fused TrkA assessed as inhibition of cell growth incubated for 3 days by CCK-8 assay
# BaF3 [9] = assay: cells; conditions: Mus musculus, BaF3, 72 h; remark: listed apart in the source
# Description: Cytotoxicity against mouse BaF3 cells expressing TEL fused TrkC assessed as inhibition of cell growth incubated for 3 days by CCK-8 assay
# [10] = biological target: High affinity nerve growth factor receptor (Homo sapiens, UniProt P04629); assay: Inhibition of wild type TrkA (unknown origin) using poly(Glu: Tyr) as substrate preincubated for 15 mins followed by substrate addition and further incubated for 30 mins in presence of [gamma-33P]ATP by scintillation counting method
# Chain of High affinity nerve growth factor receptor (P04629 whole entry): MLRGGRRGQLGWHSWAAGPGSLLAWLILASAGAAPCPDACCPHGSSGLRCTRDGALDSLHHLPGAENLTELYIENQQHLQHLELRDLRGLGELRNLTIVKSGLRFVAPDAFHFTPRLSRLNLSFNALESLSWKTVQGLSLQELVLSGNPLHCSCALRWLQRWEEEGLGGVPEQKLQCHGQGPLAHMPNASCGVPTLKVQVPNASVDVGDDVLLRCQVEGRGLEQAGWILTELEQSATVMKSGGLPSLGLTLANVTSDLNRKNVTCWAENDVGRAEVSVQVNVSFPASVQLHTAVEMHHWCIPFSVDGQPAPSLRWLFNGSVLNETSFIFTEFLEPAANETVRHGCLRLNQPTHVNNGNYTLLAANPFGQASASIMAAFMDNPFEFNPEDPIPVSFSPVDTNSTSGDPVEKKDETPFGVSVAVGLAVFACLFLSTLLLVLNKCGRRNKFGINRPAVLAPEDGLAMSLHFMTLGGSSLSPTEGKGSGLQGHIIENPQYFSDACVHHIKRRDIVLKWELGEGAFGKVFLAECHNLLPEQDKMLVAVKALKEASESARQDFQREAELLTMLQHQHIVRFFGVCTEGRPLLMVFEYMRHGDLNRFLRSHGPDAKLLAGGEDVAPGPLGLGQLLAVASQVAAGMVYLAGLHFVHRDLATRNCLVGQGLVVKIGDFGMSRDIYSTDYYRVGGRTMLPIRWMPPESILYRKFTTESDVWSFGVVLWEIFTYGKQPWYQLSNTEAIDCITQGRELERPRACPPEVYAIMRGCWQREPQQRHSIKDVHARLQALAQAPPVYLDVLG
# BaF3 [11] = assay: cells; conditions: Mus musculus, BaF3, 72 h; remark: listed apart in the source
# [12] = biological target: BDNF/NT-3 growth factors receptor (Homo sapiens, UniProt Q16620); assay: Inhibition of wild type TrkB (unknown origin) using poly(Glu: Tyr) as substrate preincubated for 15 mins followed by substrate addition and further incubated for 30 mins in presence of [gamma-33P]ATP by scintillation counting method
# Chain of BDNF/NT-3 growth factors receptor (Q16620 whole entry): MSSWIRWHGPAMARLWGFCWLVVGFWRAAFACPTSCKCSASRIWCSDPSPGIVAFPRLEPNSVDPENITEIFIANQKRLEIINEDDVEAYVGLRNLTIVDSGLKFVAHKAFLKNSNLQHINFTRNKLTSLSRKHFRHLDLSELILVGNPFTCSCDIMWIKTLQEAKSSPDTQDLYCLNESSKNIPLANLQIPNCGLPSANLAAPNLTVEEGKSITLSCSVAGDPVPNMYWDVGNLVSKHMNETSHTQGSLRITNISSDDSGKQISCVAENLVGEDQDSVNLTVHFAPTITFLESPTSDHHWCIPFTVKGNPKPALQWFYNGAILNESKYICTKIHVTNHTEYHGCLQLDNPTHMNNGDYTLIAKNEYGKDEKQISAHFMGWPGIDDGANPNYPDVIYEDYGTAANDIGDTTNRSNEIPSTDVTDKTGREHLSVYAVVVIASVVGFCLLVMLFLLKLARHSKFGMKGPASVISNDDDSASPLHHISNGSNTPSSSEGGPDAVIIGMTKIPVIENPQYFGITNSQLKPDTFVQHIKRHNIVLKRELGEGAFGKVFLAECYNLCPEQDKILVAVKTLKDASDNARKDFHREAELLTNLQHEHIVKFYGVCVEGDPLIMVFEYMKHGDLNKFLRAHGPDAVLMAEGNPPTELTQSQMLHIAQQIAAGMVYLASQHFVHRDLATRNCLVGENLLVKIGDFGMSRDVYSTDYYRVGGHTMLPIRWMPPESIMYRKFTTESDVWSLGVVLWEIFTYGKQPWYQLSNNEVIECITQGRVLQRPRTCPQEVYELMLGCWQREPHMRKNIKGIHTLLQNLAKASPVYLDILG
# [13] = Toxicity in NOD-SCID mouse assessed as histological changes in kidney at 5 to 20 mg/kg, iv measured after 10 days by H and E staining based microscopic analysis; type: organism-based; conditions: in vivo, 240 h, dose 5-20 mg/kg, time 10 day
# [14] = Toxicity in NOD-SCID mouse allografted with larotrectinib-resistant mouse BaF3 cells expressing TEL fused TrkC G623R mutant assessed as body weight loss at 40 mg/kg, po qd measured every 2 or 3 days for 10 days; type: organism-based; conditions: in vivo, 240 h, time 10 day
# [15] = Toxicity in NOD-SCID mouse assessed as histological changes in heart at 5 to 20 mg/kg, iv measured after 10 days by H and E staining based microscopic analysis; type: organism-based; conditions: in vivo, 240 h, dose 5-20 mg/kg, time 10 day
# [16] = Toxicity in NOD-SCID mouse assessed as histological changes in spleen at 5 to 20 mg/kg, iv measured after 10 days by H and E staining based microscopic analysis; type: organism-based; conditions: in vivo, 240 h, dose 5-20 mg/kg, time 10 day
# BaF3 [17] = assay: Antitumour activity against mouse BaF3 cells expressing TEL fused TrkA allografted in NOD-SCID mouse assessed as reduction in tumor progression at 40 mg/kg/day, po qd measured every 2 or 3 days for 10 days; type: functional, organism-based; conditions: time 10.0 day
# [18] = Toxicity in NOD-SCID mouse allografted with mouse BaF3 cells expressing TEL fused TrkA assessed as body weight loss at 40 mg/kg, po qd measured every 2 or 3 days for 10 days; type: organism-based; conditions: in vivo, 240 h, time 10 day
# BaF3 [19] = assay: In vivo inhibition of Trk signalling in NOD-SCID mouse allografted with mouse BaF3 cells expressing TEL fused TrkC G623R mutant assessed as reduction in p-Erk level at 5 to 20 mg/kg, iv qd measured after 10 days by IHC staining based analysis; type: functional, organism-based; conditions: dose 5-20 mg/kg, time 10.0 day
# BaF3 [20] = assay: In vivo inhibition of Trk signalling in NOD-SCID mouse allografted with mouse BaF3 cells expressing TEL fused TrkC G623R mutant assessed as reduction in p-Trk level at 5 to 20 mg/kg, iv qd measured after 10 days by IHC staining based analysis; type: functional, organism-based; conditions: dose 5-20 mg/kg, time 10.0 day
# BaF3 [21] = assay: In vivo inhibition of Trk signalling in NOD-SCID mouse allografted with mouse BaF3 cells expressing TEL fused TrkC G623R mutant assessed as reduction in p-Akt level at 5 to 20 mg/kg, iv qd measured after 10 days by IHC staining based analysis; type: functional, organism-based; conditions: dose 5-20 mg/kg, time 10.0 day
# BaF3 [22] = assay: Antitumour activity against larotrectinib-resistant mouse BaF3 cells expressing TEL fused TrkC G623R mutant allografted in NOD-SCID mouse assessed as reduction in tumor growth at 40 mg/kg/day, po qd measured every 2 or 3 days for 10 days; type: functional, organism-based; conditions: time 10.0 day
# [23] = Toxicity in NOD-SCID mouse assessed as histological changes in liver at 5 to 20 mg/kg, iv measured after 10 days by H and E staining based microscopic analysis; type: organism-based; conditions: in vivo, 240 h, dose 5-20 mg/kg, time 10 day
# [24] = Toxicity in NOD-SCID mouse assessed as histological changes in lung at 5 to 20 mg/kg, iv measured after 10 days by H and E staining based microscopic analysis; type: organism-based; conditions: in vivo, 240 h, dose 5-20 mg/kg, time 10 day
SMILES,IC50 at 3 days (in vitro) [nM],IC50 (BaF3 [1]) [nM],IC50 (BaF3 [2]) [nM],IC50 (BaF3 [3]) [nM],IC50 (cells) [nM],IC50 (BaF3 [4]) [nM],IC50 (BaF3 [5]) [nM],IC50 (BaF3 [6]) [nM],IC50 (BaF3 [8]) [nM],IC50 [10] [nM],IC50 [12] [nM],also measured
Cc1cc(NC(=O)Nc2cc(C(C)(C)C)nn2-c2ccc(C(F)(F)F)cc2)ccc1Nc1ncnc2c1OC(C)(C)C(=O)N2,> 10000,2,2,86,13,13,10,86,2,–,–,IC50 (BaF3 [7]): 3 nM
Cc1cc(NC(=O)Nc2cc(C(C)(C)C)nn2-c2ccccc2)ccc1Nc1ncnc2c1OC(C)(C)C(=O)N2,> 10000,2,5,51,21,19,34,51,15,13,–,IC50 (BaF3 [9]): 39 nM; IC50 (BaF3 [11]): 151 nM
O=C(Nc1cnn2ccc(N3CCC[C@@H]3c3cc(F)ccc3F)nc12)N1CC[C@H](O)C1 [LAROTRECTINIB],3570,1260,1,–,11,547,321,1490,11,–,–,IC50 (BaF3 [9]): 59 nM; IC50 (BaF3 [11]): 4060 nM; IC50 (BaF3 [7]): 586 nM
Cc1cc(NC(=O)Nc2cc(C(C)(C)C)nn2-c2ccccc2F)ccc1Nc1ncnc2c1OC(C)(C)C(=O)N2,–,–,–,3270,–,–,–,–,–,20,15,–
Cc1ccc(-n2nc(C(C)(C)C)cc2NC(=O)Nc2ccc(Nc3ncnc4c3OC(C)(C)C(=O)N4)c(C)c2)cc1,2990,1,5,58,6,4,4,58,1,22,18,IC50 (BaF3 [9]): 13 nM; IC50 (BaF3 [11]): 31 nM; IC50 (BaF3 [7]): 2 nM
C[C@@H]1CCc2ncc(F)cc2[C@H]2CCCN2c2ccn3ncc(c3n2)C(=O)N1 [SELITRECTINIB],> 10000,109,1,18,5,17,30,18,9,–,–,Activity [13]: Non-Toxic; IC50 (BaF3 [9]): 4 nM; Activity [14]: Non-Toxic; IC50 (BaF3 [11]): 15 nM; Activity [15]: Non-Toxic; Activity [16]: Non-Toxic; Activity (BaF3 [17]): Active; Activity [18]: Non-Toxic; inhibition (BaF3 [19]): Active; inhibition (BaF3 [20]): Active; inhibition (BaF3 [21]): Active; Activity (BaF3 [22]): Active; Activity [23]: Non-Toxic; Activity [24]: Non-Toxic; IC50 (BaF3 [7]): 50 nM
CC1(C)Oc2c(ncnc2Nc2ccc(NC(=O)Nc3cc(C(C)(C)C)nn3-c3ccccc3)c3ccccc23)NC1=O,–,–,–,382,–,–,–,–,–,87,88,–
CC1(C)Oc2c(ncnc2Nc2ccc(NC(=O)Nc3cc(C(C)(C)C)nn3C3CCCCC3)cc2)NC1=O,–,–,–,1560,–,–,–,–,–,344,228,–
COc1cc(NC(=O)Nc2cc(C(C)(C)C)nn2-c2ccccc2)ccc1Nc1ncnc2c1OC(C)(C)C(=O)N2,–,–,–,9290,–,–,–,–,–,50,123,–
CSc1cc(Nc2ncnc3c2OC(C)(C)C(=O)N3)ccc1NC(=O)Nc1cc(C(C)(C)C)nn1-c1ccccc1,–,–,–,230,–,–,–,–,–,89,106,–
Cc1cc(NC(=O)Nc2cc(C(C)(C)C)nn2-c2ccc(OC(F)(F)F)cc2)ccc1Nc1ncnc2c1OC(C)(C)C(=O)N2,–,–,–,86,–,–,–,–,–,46,40,–
Cc1cc(NC(=O)Nc2cc(C(C)(C)C)nn2-c2ccc(F)cc2)ccc1Nc1ncnc2c1OC(C)(C)C(=O)N2,–,–,–,245,–,–,–,–,–,30,12,–
CC1(C)Oc2c(ncnc2Nc2ccc(NC(=O)Nc3cc(C(C)(C)C)nn3-c3ccccc3)c(F)c2)NC1=O,–,–,–,978,–,–,–,–,–,81,38,–
CC1(C)Oc2c(ncnc2Nc2ccc(NC(=O)Nc3cc(C(F)(F)F)cc(C(F)(F)F)c3)cc2)NC1=O,–,–,–,5080,–,–,–,–,–,100,202,–
Cc1cc(NC(=O)Nc2cc(C(C)(C)C)nn2-c2ccc3ccccc3c2)ccc1Nc1ncnc2c1OC(C)(C)C(=O)N2,–,–,–,> 10000,–,–,–,–,–,41,245,–
CC1(C)Oc2c(ncnc2Nc2ccc(NC(=O)Nc3ccc(Cl)c(C(F)(F)F)c3)cc2)NC1=O,–,–,–,1350,–,–,–,–,–,211,381,–
CC1(C)Oc2c(ncnc2Nc2ccc(NC(=O)Nc3cc(C(C)(C)C)nn3-c3ccccc3)cc2)NC1=O,–,–,–,396,–,–,–,–,–,35,21,–
Cc1cc(NC(=O)Nc2cc(C(C)(C)C)nn2-c2ccc(F)c(F)c2)ccc1Nc1ncnc2c1OC(C)(C)C(=O)N2,> 10000,1,5,34,8,10,14,34,2,9,19,IC50 (BaF3 [9]): 25 nM; IC50 (BaF3 [11]): 82 nM; IC50 (BaF3 [7]): 2 nM
CC(C)n1nc(C(C)(C)C)cc1NC(=O)Nc1ccc(Nc2ncnc3c2OC(C)(C)C(=O)N3)cc1,–,–,–,> 10000,–,–,–,–,–,> 10000,> 10000,–
CC1(C)Oc2c(ncnc2Nc2ccc(NC(=O)Nc3cc(C(C)(C)C)nn3C(C)(C)C)cc2)NC1=O,–,–,–,> 10000,–,–,–,–,–,6200,1400,–
